Source: ChEMBL document CHEMBL5030535, “Conjugates Derived from Lapatinib Derivatives with Cancer Cell Stemness Inhibitors Effectively Reversed Drug Resistance in Triple-Negative Breast Cancer” (J Med Chem, 2021)

What was measured:
[1] = system: MDA-MB-231; assay: Antiproliferative activity against human drug tolerant MDA-MB-231/lapatinib cells assessed as inhibition of cell growth in measured after 72 hrs by MTT assay; assay type: functional, cell-based; conditions: MDA-MB-231, 72 h
[2] = system: MCF7; assay: Antiproliferative activity against human MCF7 cells assessed as inhibition of cell growth measured after 72 hrs by MTT assay; assay type: functional, cell-based; conditions: MCF7, 72 h
[3] = Resistant factor, ratio of IC50 for antiproliferative activity against drug-tolerant human MDA-MB-231 cells to IC50 for human MDA-MB-231 cells; assay type: functional
[4] = system: HUVEC; assay: Antiproliferative activity against human HUVEC cells assessed as inhibition of cell growth in measured after 72 hrs by MTT assay; assay type: cell-based
[5] = system: MDA-MB-231; assay: Antiproliferative activity against human MDA-MB-231 cells assessed as inhibition of cell growth measured after 72 hrs by MTT assay; assay type: functional, cell-based; conditions: MDA-MB-231, 72 h
[6] = target: T1, Aldehyde dehydrogenase 1A1 (Homo sapiens, UniProt P00352); assay: Inhibition of ALDH1A1 in human drug-tolerant MDA-MB-231/lapatinib cells assessed as after 24 hrs
T1 sequence (P00352 whole entry): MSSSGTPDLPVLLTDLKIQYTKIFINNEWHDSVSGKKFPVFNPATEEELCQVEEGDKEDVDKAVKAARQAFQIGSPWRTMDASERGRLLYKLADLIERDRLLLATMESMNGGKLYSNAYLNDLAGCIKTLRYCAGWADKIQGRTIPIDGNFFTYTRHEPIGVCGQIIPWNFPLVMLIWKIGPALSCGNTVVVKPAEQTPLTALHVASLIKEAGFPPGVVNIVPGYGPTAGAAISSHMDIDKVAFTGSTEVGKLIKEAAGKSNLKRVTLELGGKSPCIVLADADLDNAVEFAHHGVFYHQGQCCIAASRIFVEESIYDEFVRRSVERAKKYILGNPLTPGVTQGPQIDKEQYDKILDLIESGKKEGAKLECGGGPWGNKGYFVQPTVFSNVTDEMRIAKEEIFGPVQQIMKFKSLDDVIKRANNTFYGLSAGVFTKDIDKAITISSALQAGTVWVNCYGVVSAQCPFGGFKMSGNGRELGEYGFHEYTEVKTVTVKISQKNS

Row | IC50 [2] | IC50 [5] | SMILES | IC50 [1] | Ratio IC50 [3] | IC50 [4] | IC50 [6]
1 | 9.16 µM | 6.58 µM | CS(=O)(=O)CCN(Cc1ccc(-c2ccc3ncnc(Nc4ccc(OCc5cccc(F)c5)c(Cl)c4)c3c2)o1)C(=O)CCCC(=O)OCCN1CCN(CCCN2c3ccccc3Sc3ccc(C(F)(F)F)cc32)CC1 | 7.12 µM | 1.08 | 43.4 µM | –
2 | 3.97 µM | 3.61 µM | CC(OC(=O)CCC(=O)N(CCS(C)(=O)=O)Cc1ccc(-c2ccc3ncnc(Nc4ccc(OCc5cccc(F)c5)c(Cl)c4)c3c2)o1)c1cc2c(o1)C(=O)c1ccccc1C2=O (configuration not stated) | 5.82 µM | 1.62 | 56.6 µM | –
3 | 35.8 µM | 30.4 µM | OCCN1CCN(CCCN2c3ccccc3Sc3ccc(Cl)cc32)CC1 [PERPHENAZINE] | 31.8 µM | 1.05 | 97.8 µM | 0.524 µM
4 | 11.4 µM | 11 µM | CC(=O)c1cc2c(o1)C(=O)c1ccccc1C2=O [NAPABUCASIN] | 9.68 µM | 0.88 | 41.3 µM | 0.425 µM
